Results as given in US6723708B2, “Use of lithium (Li+) for the preparation of a composition for transfection of a polynucleotide into a cell and compositions useful in gene therapy” (Transgene S.A., priority 1999, dated 2004).

System: tibialis anterior muscles
Assay: Intramuscular transfection of plasmid pTG11033 with LiCl, luciferase activity in muscle extracts
Type: in vivo, C57BL/10 mice
Conditions: pTG11033 25 μg/muscle intramuscular with LiCl 0.1, 1, 10 mM; measured 7 days after injection; versus NaCl 0.9% control
Method: Plasmid DNA (pTG11033: CMV promoter, β-globin intron, luciferase cassette—WO 98/34910) was prepared according to Bischoff et al., Analytical Biochemistry 254 (1997), 69-81. Prior to intramuscular injection the tested molecules were mixed with the plasmid DNA preparation. 25 μg of plasmid DNA were injected per muscle into 5 to 10 week-old C57BL/10 mice. The 2 tibialis anterior (right and left) muscles were injected (each muscle was considered as a sample). Furthermore, for each condition, both the lowest and highest luciferase acitvity values were omitted, which means number of sample per condition=(2×number of mice per condition)−2.
One week after injection of the composition, the mice were killed and the tibialis anterior muscles were retrieved and frozen. Luciferase activity was quantified on whole muscle extracts using a conventional measurement kit (Luciferase Assay System, Promega). Briefly, muscles were ground separately and diluted in 200 μl of reporter lysis buffer (Promega). 10 μl-samples were placed in 96 well-plates and mixed with 100 μl of substrate. Luciferase activity was expressed as number of RLU emitted per minute, per mg of protein.
Protein was measured on 10 μl samples using a VCA Protein Assay kit (Pierce).
In this example, the stock solution of plasmid pTG11033 was prepared in TE buffer (Tris 10 mM—EDTA 1 mM) at a nucleic acid concentration of […]. […]

Compound: [Cl-].[Li+] [LiCI, lithium chloride]
- increase of luciferase activity in the injected muscles: around 5 times
